Several values for one entry are separate records, joined by “and”; a condition that tells them apart may be missing. Identical values can stand only once.
Experiments:
Assay in all cases: normalised viability (% of control), CellTiter-Blue; higher = more viable cells (about 100 = DMSO control)
Settings in all cases: incubation time: 72 h
SK-BR-3 = system: SK-BR-3
Summary of the method: (§1)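 Each entry is normalised viability at a single listed concentration within a series. It comes from breast cancer cell lines incubated 72 h with compound in 384-well plates, then measured with CellTiter-Blue fluorescence at 560/590 nm. Every plate was normalised between vehicle (100) and a positive kill control (0).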

MDA-MB-453 = system: MDA-MB-453
Summary of the method: as §1

BT-474 = system: BT-474
Summary of the method: as §1

MFM-223 = system: MFM-223
Summary of the method: as §1

CAL-120 = system: CAL-120
Summary of the method: as §1

HDQ-P1 = system: HDQ-P1
Summary of the method: as §1

MDA-MB-436 = system: MDA-MB-436
Summary of the method: as §1

CAL-85-1 = system: CAL-85-1
Summary of the method: as §1

HCC1937 = system: HCC1937
Summary of the method: as §1

O=c1[nH]cc(F)c(=O)[nH]1 [Fluorouracil]
normalised viability [%]
Settings | BT-474 | CAL-85-1 | CAL-120 | HCC1937 | HDQ-P1 | MDA-MB-436 | MDA-MB-453 | MFM-223 | SK-BR-3
3 nM | – | 105 | – | – | 105 | – | 113 | – | –
10 nM | 108 | – | 114 | 90.6 | – | 103 | – | 106 | 108
30 nM | – | 101 | – | – | 114 | – | 106 | – | –
100 nM | – | 115 | – | – | 99.9 | – | 99.1 | – | –
1000 nM | 108 | – | 95.8 | 112 | – | 87.8 | – | 98.5 | 62.4
10000 nM | 94 | – | 54.9 | 75.3 | – | 73.5 | – | 94.3 | 43.1

C[C@@H]1C=C2C(=O)O[C@@H]3CC[C@H](C1)[C@]23O [Galiellalactone]
normalised viability [%]
Settings | BT-474 | CAL-85-1 | CAL-120 | HCC1937 | HDQ-P1 | MDA-MB-436 | MDA-MB-453 | MFM-223 | SK-BR-3
15 nM | – | 95.8 | – | – | 108 | – | 114 | – | –
50 nM | 131 | – | 88.6 | 132 | – | 98.2 | – | 90.6 | 105
150 nM | – | 90.5 | – | – | 96 | – | 91.2 | – | –
500 nM | – | 108 | – | – | 116 | – | 98.4 | – | –
5000 nM | 98.9 | – | 89.9 | 79.4 | – | 76.6 | – | 95.5 | 85.2
50000 nM | 27.4 | – | 83.8 | 22.8 | – | 21.9 | – | 40.4 | 6.84

COC1=C2C[C@@H](C)C[C@H](OC)[C@H](O)[C@@H](C)/C=C(\C)[C@H](OC(N)=O)[C@@H](OC)/C=C\C=C(/C)C(=O)NC(=CC1=O)C2=O [Geldanamycin]
normalised viability [%]
Settings | BT-474 | CAL-85-1 | CAL-120 | HCC1937 | HDQ-P1 | MDA-MB-436 | MDA-MB-453 | MFM-223 | SK-BR-3
3 nM | – | 104 | – | – | 124 | – | 121 | – | –
10 nM | 127 | – | 91 | 115 | – | 107 | – | 103 | 101
30 nM | – | 87.4 | – | – | 104 | – | 97.3 | – | –
100 nM | – | 99.2 | – | – | 44.8 | – | 51.3 | – | –
1000 nM | 18.5 | – | 13.6 | 30.1 | – | 15.7 | – | 17.7 | 14.9
10000 nM | 16.4 | – | 6.18 | 21.3 | – | 16.9 | – | 8.14 | 9.38

O=P(O)(NCCCl)NCCCl [Ifosfamide mustard]
normalised viability [%]
Settings | BT-474 | CAL-85-1 | CAL-120 | HCC1937 | HDQ-P1 | MDA-MB-436 | MDA-MB-453 | MFM-223 | SK-BR-3
3 nM | – | 96 | – | – | 107 | – | 115 | – | –
10 nM | 128 | – | 80.5 | 72.7 | – | 110 | – | 92.4 | 101
30 nM | – | 90.9 | – | – | 117 | – | 95.5 | – | –
100 nM | – | 99.1 | – | – | 107 | – | 107 | – | –
1000 nM | 117 | – | 85.6 | 80.2 | – | 73.3 | – | 83.3 | 107
10000 nM | 119 | – | 89.5 | 91.5 | – | 104 | – | 97 | 111

CS(=O)(=O)CCNCc1ccc(-c2ccc3ncnc(Nc4ccc(OCc5cccc(F)c5)c(Cl)c4)c3c2)o1 [Lapatinib]
Settings | normalised viability
BT-474, 10 nM | 97.6% and 106%
BT-474, 1000 nM | 37.3% and 43.9%
BT-474, 10000 nM | 8.89% and 18.7%
CAL-85-1, 3 nM | 97.7% and 91.7%
CAL-85-1, 30 nM | 90.3% and 92.4%
CAL-85-1, 100 nM | 94.6% and 91.4%
CAL-120, 10 nM | 92.4% and 99.8%
CAL-120, 1000 nM | 92% and 102%
HCC1937, 1000 nM | 91.3% and 113%
HCC1937, 10000 nM | 35.8% and 53.3%
HDQ-P1, 100 nM | 87.1% and 110%
MDA-MB-436, 10 nM | 92.8% and 106%
MDA-MB-436, 1000 nM | 91.3% and 112%
MDA-MB-436, 10000 nM | 22.6% and 43.3%
MDA-MB-453, 3 nM | 100% and 118%
MDA-MB-453, 30 nM | 72.4% and 85.8%
MDA-MB-453, 100 nM | 59.9% and 59%
MFM-223, 10 nM | 92.8% and 95.8%
MFM-223, 1000 nM | 95.8% and 96.9%
MFM-223, 10000 nM | 49.5% and 66%
SK-BR-3, 10 nM | 78.8% and 92.4%
SK-BR-3, 1000 nM | 18.2% and 22.2%
SK-BR-3, 10000 nM | 6.7% and 8.97%

Cn1cnc2c(F)c(Nc3ccc(Br)cc3F)c(C(=O)NOCCO)cc21 [MEK-162]
normalised viability [%]
Settings | BT-474 | CAL-85-1 | CAL-120 | HCC1937 | HDQ-P1 | MDA-MB-436 | MDA-MB-453 | MFM-223 | SK-BR-3
0.3 nM | – | 94.6 | – | – | 110 | – | 115 | – | –
1 nM | 119 | – | 98.1 | 72.6 | – | 114 | – | 90.8 | 111
3 nM | – | 95.1 | – | – | 105 | – | 94 | – | –
10 nM | – | 99.1 | – | – | 113 | – | 110 | – | –
100 nM | 115 | – | 93.8 | 94.8 | – | 76.4 | – | 89.4 | 111
1000 nM | 119 | – | 93.4 | 88.5 | – | 99.6 | – | 94.5 | 102

CCOc1cc2ncc(C#N)c(Nc3ccc(OCc4ccccn4)c(Cl)c3)c2cc1NC(=O)/C=C/CN(C)C [Neratinib]
normalised viability [%]
Settings | BT-474 | CAL-85-1 | CAL-120 | HCC1937 | HDQ-P1 | MDA-MB-436 | MDA-MB-453 | MFM-223 | SK-BR-3
0.3 nM | – | 92.7 | – | – | 123 | – | 106 | – | –
1 nM | 105 | – | 95.7 | 80.3 | – | 104 | – | 99.2 | 107
3 nM | – | 100 | – | – | 115 | – | 99 | – | –
10 nM | – | 97.1 | – | – | 106 | – | 88.3 | – | –
100 nM | 120 | – | 76 | 99.5 | – | 108 | – | 87.7 | 95.8
1000 nM | 91.2 | – | 82.7 | 96.3 | – | 110 | – | 91.6 | 114

COc1ccc(C2=N[C@@H](c3ccc(Cl)cc3)[C@@H](c3ccc(Cl)cc3)N2C(=O)N2CCNC(=O)C2)c(OC(C)C)c1 [Nutlin-3]
normalised viability [%]
Settings | BT-474 | CAL-85-1 | CAL-120 | HCC1937 | HDQ-P1 | MDA-MB-436 | MDA-MB-453 | MFM-223 | SK-BR-3
3 nM | – | 84.5 | – | – | 107 | – | 104 | – | –
10 nM | 120 | – | 82.8 | 81.3 | – | 108 | – | 87.5 | 103
30 nM | – | 78.5 | – | – | 112 | – | 92 | – | –
100 nM | – | 90.4 | – | – | 107 | – | 99.8 | – | –
1000 nM | 114 | – | 85.2 | 98.7 | – | 82.3 | – | 83.2 | 98.1
10000 nM | 90.3 | – | 96.6 | 113 | – | 110 | – | 81.6 | 101

COC1=CC(c2cc3ccccc3[nH]2)=N/C1=C\c1[nH]c(C)cc1C [Obatoclax]
normalised viability [%]
Settings | BT-474 | CAL-85-1 | CAL-120 | HCC1937 | HDQ-P1 | MDA-MB-436 | MDA-MB-453 | MFM-223 | SK-BR-3
3 nM | – | 81.2 | – | – | 85.3 | – | 101 | – | –
10 nM | 92.6 | – | 75.5 | 63 | – | 76.7 | – | 72.7 | 80.2
30 nM | – | 77.7 | – | – | 94.9 | – | 77.9 | – | –
100 nM | – | 79.5 | – | – | 68.8 | – | 74.3 | – | –
1000 nM | 36.1 | – | 9.72 | 21.4 | – | 38.2 | – | 54.4 | 27.1
10000 nM | 33.4 | – | 8.54 | 20 | – | 21.5 | – | 25.6 | 21.2
